Laboratory results published in publication PMC11968394, “The effect of deuterated PLK1 inhibitor on its safety and efficacy in vivo” (Frontiers in Oncology, 2025).
Several values for one entry are separate records, joined by “and”; a condition that tells them apart may be missing. Equal values may be shown once.

What was measured:
[1] = system: BxPC-3 CDX model; experiment: BxPC-3 CDX model; format: in vivo, NOD SCID mouse; conditions: for Mice died: NOD SCID, 60 mg/kg, 6 mice/group, 10 days
Procedure: These studies were performed at Yikon Medical (Beijing, China). Cancer cell line HCT 116 or BxPC-3 were cultured in 10% FBS RPMI-1640 medium plus penicillin, streptomycin, and glutamine at 37°C and 5% CO2 until reaching confluency. Cells were then prepared for inoculation. 5×10⁷ cells/mL cells in 100 µL were inoculated subcutaneously into the right flank of each female BALB/c nude mouse for HCT 116 cell line or female NOD SCID mouse for BxPC-3 cell line. When tumors reached 100-150 mm³, mice were divided into 4-5 groups (6-7 mice/group). […] Mice were dosed at least 10 days and were monitored for 30 days.
TGI was calculated as follows.

[2] = molecular target: DYRK3 (Homo sapiens, UniProt O43781); experiment: Kinase assay DYRK3; format: biochemical
Sequence of DYRK3 (O43781 whole entry, species assumed): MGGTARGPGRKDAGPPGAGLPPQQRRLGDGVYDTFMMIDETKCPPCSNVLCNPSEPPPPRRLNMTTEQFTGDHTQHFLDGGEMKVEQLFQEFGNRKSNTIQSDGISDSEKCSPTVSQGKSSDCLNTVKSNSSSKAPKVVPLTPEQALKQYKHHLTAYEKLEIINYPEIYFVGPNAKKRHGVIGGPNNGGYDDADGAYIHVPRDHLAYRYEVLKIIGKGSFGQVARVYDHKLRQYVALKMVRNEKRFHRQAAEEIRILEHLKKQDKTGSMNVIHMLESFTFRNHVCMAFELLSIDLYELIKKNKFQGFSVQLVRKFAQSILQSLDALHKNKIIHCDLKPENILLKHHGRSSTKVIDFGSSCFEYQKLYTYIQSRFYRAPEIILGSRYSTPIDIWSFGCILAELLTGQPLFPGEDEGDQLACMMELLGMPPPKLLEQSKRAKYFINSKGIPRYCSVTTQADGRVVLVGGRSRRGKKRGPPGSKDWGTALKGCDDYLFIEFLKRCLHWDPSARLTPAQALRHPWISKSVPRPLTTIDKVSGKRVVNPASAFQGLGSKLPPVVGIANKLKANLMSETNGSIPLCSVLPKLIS
Procedure: (§1) Serial dilutions in DMSO were prepared. PLK1 was serially diluted 5-fold from 10 μM, yielding concentrations from 10000 nM to 0.00512 nM. Other targets were serially diluted 3-fold from 10 μM, yielding concentrations from 10000 nM to 0.5 nM. We have used two kinase assays: HTRF assay and ADG-Glo assay.
(§2) For HTRF Assay, 2× ATP/substrate solution and 2× kinase solution were prepared in kinase reaction buffer. Using an Echo 655, 50 nL of each diluted compound was transferred to a 384-well detection plate. The plate was centrifuged at 1000 rpm for 1 minute. 2.5 μL of 2× kinase solution was added to each well. The plate was incubated at 25°C for 10 minutes. 2.5 μL of 2× ATP/substrate solution was added to each well. The plate was centrifuged at 1000 rpm for 1 minute. The plate was incubated at 25°C for 40 minutes. 2× XL665 and antibody detection reagent were prepared in detection buffer. 5 μL of the prepared kinase detection reagent was added to each well. The plate was centrifuged at 1000 rpm for 1 minute. The plate was incubated at 25°C for 1 hour. Fluorescence signals at 620 nm (Cryptate) and 665 nm (XL665) were measured using a multifunction plate reader.
(§3) For ADP-Glo Assay, 2× ATP/substrate solution and 2× kinase solution were prepared in kinase reaction buffer. […] Luminescence signals were measured using a multifunction plate reader.

[3] = molecular target: CK1ϵ (Homo sapiens, UniProt P49674); experiment: Kinase assay CK1ϵ; format: biochemical
Sequence of CK1ϵ (P49674 whole entry): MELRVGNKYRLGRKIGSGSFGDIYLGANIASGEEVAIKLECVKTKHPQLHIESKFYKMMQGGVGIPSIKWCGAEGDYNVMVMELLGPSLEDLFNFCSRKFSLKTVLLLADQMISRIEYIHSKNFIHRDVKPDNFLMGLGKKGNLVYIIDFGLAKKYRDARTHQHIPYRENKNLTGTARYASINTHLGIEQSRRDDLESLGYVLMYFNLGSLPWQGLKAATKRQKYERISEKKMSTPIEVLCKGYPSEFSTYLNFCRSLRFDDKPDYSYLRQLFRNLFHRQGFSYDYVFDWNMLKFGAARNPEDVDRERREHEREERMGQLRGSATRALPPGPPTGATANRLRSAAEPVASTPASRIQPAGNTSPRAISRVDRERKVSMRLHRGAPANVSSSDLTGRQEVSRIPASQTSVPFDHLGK
Procedure: as §1, §2, §3

[4] = system: MIA PaCa-2; experiment: Cell viability (CellTiter-Glo, 72 h), MIA PaCa-2; format: cell-based, Human; conditions: MIA PaCa-2, 72 hours; for IC50: Homo sapiens; for Bottom: dose-response curve bottom; for Top: dose-response curve top
Procedure: (§4) Human pancreatic cancer cell lines (PSN1, PANC-1, Panc 04.03, MIA PaCa-2, BxPC-3, and Capan-1) were cultured in their respective culture media. PSN1 cell lines were maintained in RPMI 1640 + 10%FBS. MIA PaCa-2 cells were cultured in DMEM+10%FBS+5% horse serum. Panc 04.03 cells were grown in RPMI 1640 + 15%FBS+10μg/mL Insulin. PANC-1 cells were maintained in DMEM+10%FBS. BxPC-3 cells were cultured in RPMI 1640 + 10%FBS. Capan-1 cells were grown in IMDM+20%FBS. All cells were incubated at 37°C in a humidified atmosphere containing 5% CO2.
(§5) For assays, cells in the logarithmic growth phase were harvested, seeded to different concentrations at 2,000-6,000 cells/well in 96-well plates. Following overnight incubation, test compounds were added at various concentrations and incubated for 72 hours. Cell viability was assessed by the ATP concentration using the CellTiter-Glo reagent (Promega, Madison, WI 53711 USA), and luminescence values were recorded by a Multilabel Reader (PerkinElmer, Waltham, MA, USA).

[5] = system: Sprague-Dawley rats; experiment: Sprague-Dawley rat repeated administration toxicity study; conditions: for Death / survival after 9-day dosing: Sprague-Dawley rats, oral 15 mg/kg once a day, n=3; for Rats survived at day 14: female, Sprague-Dawley, po, 14 days
Procedure: Rat toxicity was studied at JOINN Laboratories (Suzhou, Jiangsu, China). […] […] […] Using 2 mL sterile syringes and gavage tubes, animals were dosed based on their most recent body weight, with volumes rounded to one decimal place. Test compounds were stirred continuously for at least 15 minutes before and during administration. The rats were dosed once a day for 14 days.

[6] = system: PSN1; experiment: Cell viability (CellTiter-Glo, 72 h), PSN1; format: cell-based, Human; conditions: PSN1, 72 hours; for IC50: Homo sapiens; for Bottom: dose-response curve bottom; for Top: dose-response curve top
Procedure: as §4, §5

[7] = molecular target: TSSK1 (Homo sapiens, UniProt Q9BXA7); experiment: Kinase assay TSSK1; format: biochemical
Sequence of TSSK1 (Q9BXA7 whole entry, species assumed): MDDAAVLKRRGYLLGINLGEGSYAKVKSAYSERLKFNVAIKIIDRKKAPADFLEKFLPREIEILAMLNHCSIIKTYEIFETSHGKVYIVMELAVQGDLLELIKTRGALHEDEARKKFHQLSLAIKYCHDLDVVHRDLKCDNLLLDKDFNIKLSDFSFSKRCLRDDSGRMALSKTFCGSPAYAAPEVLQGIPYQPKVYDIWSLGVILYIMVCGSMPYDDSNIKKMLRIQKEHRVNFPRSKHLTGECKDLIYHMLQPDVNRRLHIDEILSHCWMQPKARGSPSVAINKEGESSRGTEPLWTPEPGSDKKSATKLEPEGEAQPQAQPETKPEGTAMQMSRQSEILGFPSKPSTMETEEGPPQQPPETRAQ
Procedure: as §1, §2, §3

[8] = Pharmacokinetics in PSN1 tumor CDX model, M-NSG mice; format: in vivo; conditions: female, mouse, serum; PSN1 tumor-bearing M-NSG mice, oral, 60 mg/kg; read-out: T1/2 in blood (converted)
Procedure: For in vivo PK/PD studies, a PSN1 tumor model was established in female M-NSG (NOD.Cg-Prkdc^scidIl2rg^em1Smoc ) mice, which are severely immunodeficient mice lacking the interleukin 2 receptor gamma chain on a NOD.Cg-Prkdc^scid background, at Shanghai Model Organisms (Shanghai, China). Briefly, 5 × 10^6 PSN1 cells were inoculated subcutaneously into each M-NSG mouse. Once the tumors reached approximately 500 mm³, compounds were administered orally at various dosages. For PK studies, blood samples were collected at 0, 0.25, 0.5, 1, 2, 6, and 24 hours post-dose. The sera from blood were then obtained and stored at -70°C. For PD studies, tumors were harvested 2 hours after dosing and stored at -70°C.The serum and tumor samples were then transported to PRECEDO (Hefei, Anhui, China) for further PK/PD studies.
For PK studies, serum and tumor samples were processed with the internal standard solution. Serum samples were centrifuged and mixed directly, while tumor samples were homogenized first. Supernatants were prepared for LC-MS/MS analysis. Compound concentrations were determined using LC-MS/MS with tolbutamide as the internal standard, employing a reverse-phase column and ESI on a tandem quadrupole mass spectrometer.

[9] = system: BxPC-3; experiment: Cell viability (CellTiter-Glo, 72 h), BxPC-3; format: cell-based, Human; conditions: BxPC-3, 72 hours; for Bottom: dose-response curve bottom; for Top: dose-response curve top; for IC50: Homo sapiens
Procedure: as §4, §5

SMILES | Mice died [1] | IC50 [2] [nM] | IC50 [3] [nM] | IC50 [4] [nM] | Bottom [4] | Top [4] | Rats survived at day 14 ([5]; rat, in vivo, 15 mg/kg) | IC50 [6] [nM] | Bottom [6] | Top [6] | IC50 [7] [nM] | half-life [8] [h] | Bottom [9] | Top [9] | IC50 [9] [nM] | further results
CN1CCN(c2ccc(OC(F)(F)F)c(Nc3ncc4c(n3)-c3c(c(C(N)=O)nn3CCO)CC4)c2)CC1 [NMS-P937] | two mice died | 114 | 156 | 196 | -4.1 | 78.7 | 2/3 | 48.9 | 2.3 | 85.9 | 77.8 | 2.4 | -2.8 | 53.5 | 64.9 | Body weight ([1]; NOD SCID mice): dramatically reduced body weight; Mice died ([1]; listed as NMP-P937, 60 mg/kg): 2/6; Death / survival after 9-day dosing ([5]; 15 mg/kg): 1 out of 3 rats treated with NMS-P937 died and Death of 1/3 rat
[2H]C1([2H])N(C)C([2H])([2H])C([2H])([2H])N(c2ccc(OC(F)(F)F)c(Nc3ncc4c(n3)-c3c(c(C(N)=O)nn3CCO)CC4)c2)C1([2H])[2H] [PR00012] | one mouse died and 1/6 | 112 | 156 | 262 | 8.4 | 86.8 | 3/3 | 60.7 | 13.7 | 93.7 | 53.2 | 5.5 | 13.6 | 66.3 | 65.1 | Tumor growth ([1]; NOD SCID mice): tumor growth inhibition in a dose-dependent manner; Death / survival after 9-day dosing [5]: all three rats treated with PR00012 survived; Tolerability ([5]; rat, in vivo, 10 mg/kg): the rats were still tolerable
